Test results from PMC5698726, “Allosteric Tuning of Caspase‐7: A Fragment‐Based Drug Discovery Approach” (Angewandte Chemie (International Ed. in English), 2017).

Experiments:
caspase-7 (C7) [1] = target: T1, caspase-7 (C7) (Homo sapiens, UniProt P55210); test: fluorogenic Ac-DEVD-AFC cleavage assay; assay type: biochemical
T1 construct: gene CASP7; mature (processed, active) caspase-7, dimer, 6xHis tag; expression details only in supplement
T1 sequence (P55210 24-198): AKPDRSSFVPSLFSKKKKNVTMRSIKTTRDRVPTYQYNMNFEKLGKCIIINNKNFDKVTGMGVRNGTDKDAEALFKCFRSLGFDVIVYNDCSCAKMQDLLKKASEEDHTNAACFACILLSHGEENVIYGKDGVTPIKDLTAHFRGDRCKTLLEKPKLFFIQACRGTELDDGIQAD
T1 sequence (P55210 207-303): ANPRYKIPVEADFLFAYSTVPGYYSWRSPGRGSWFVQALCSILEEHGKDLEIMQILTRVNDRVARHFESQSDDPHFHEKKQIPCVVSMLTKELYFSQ

caspase-7 (C7) [2] = target: T1, caspase-7 (C7); test: SPR OneStep injection, His-captured protein, […] fit; assay type: binding; conditions: read-out: Dissociation constant
caspase-7 (C7) [3] = target: T1, caspase-7 (C7); test: steady-state kinetics, Ac-DEVD-AFC cleavage; assay type: biochemical

| IC50 (caspase-7 (C7) [1]) [mM] | Kd (caspase-7 (C7) [2]) [mM] | Ki (caspase-7 (C7) [3]) [mM] | Compound |
| --- | --- | --- | --- |
| 8.52 ± 0.0012 | 4.09 ± 0.3 | 4.32 ± 0.194 | O=C(O)C1c2ccccc2Oc2ccccc21 [compound 2, 2] |
| 3.98 ± 0.00105 | 8 ± 3 | 5.47 ± 0.398 | CC(=O)c1ccccc1Sc1ccccc1C(=O)O [compound 1, 1] |
| 0.637 ± 0.00104 | – | 0.667 ± 0.0319 | O=C(O)Cc1ccccc1Sc1ccccc1 [compound 6, 6] |
